Measured values: patent US20090221599A1, “PHTHALAZINONE PYRAZOLE DERIVATIVES, THEIR MANUFACTURE AND USE AS PHARMACEUTICAL AGENTS” (priority 2006, published 2009)
pIC50: −log10 of the molar value.

Key:
HCT 116 cells = experiment: CellTiter-Glo assay in HCT 116 cells; format: cell-based; conditions: HCT 116 human colon carcinoma cells, 5 days, CellTiter-Glo cell viability
Description: The CellTiter-Glo™ Luminescent Cell Viability Assay (Promega) is a homogeneous method of determining the number of viable cells in culture based on quantitation of the ATP present, which signals the presence of metabolically active cells.
HCT 116 cells (human colon carcinoma, ATCC-No. CC1-247) were cultivated in RPMI 1640 medium with GlutaMAX™ I (Invitrogen, Cat-No. 61870-010), 2.5% Fetal Calf Serum (FCS, Sigma Cat-No. F4135 (FBS)); 100 Units/ml penicillin/100 μg/ml streptomycin (=Pen/Strep from Invitrogen Cat. No. 15140). For the assay the cells were seeded in 384 well plates, 1000 cells per well, in the same medium. The next day the test compounds were added in various concentrations ranging from 30 μM to 0.0015 μM (10 concentrations, 1:3 diluted). After 5 days the CellTiter-Glo™ assay was done according to the instructions of the manufacturer (CellTiter-Glo™ Luminescent Cell Viability Assay, from Promega). In brief: the cell-plate was equilibrated to room temperature for approximately 30 minutes and than the CellTiter-Glo™ reagent was added. The contents were carefully mixed for 15 minutes to induce cell lysis. After 45 minutes the luminescent signal was measured in Victor 2, (scanning multiwell spectrophotometer, Wallac).
1st. day: • Medium: RPMI 1640 with GlutaMAX™ I (Invitrogen, Cat-No. 61870), 5% FCS (Sigma Cat.-No. F4135), Pen/Strep (Invitrogen, Cat No. 15140). • HCT116 (ATCC-No. CC1-247): 1000 cells in 60 μl per well of 384 well plate (Greiner 781098, μClear-plate white) • After seeding incubate plates 24 h at 37° C., 5% CO2 2nd. day: Induction (Treatment with compounds, 10 concentrations):
In order to achieve a final concentration of 30 μM as highest concentration 3.5 μl of 10 mM compound stock solution were added directly to 163 μl media. Then step e) of the dilution procedure described below, was followed.
In order to achieve the second highest to the lowest concentrations, a serial dilution with dilution steps of 1:3 was followed according to the procedure (a-d) as described here below: • a) for the second highest concentration add 10 μl of 10 mM stock solution of compound to 20 μl dimethylsulfoxide (DMSO) • b) dilute 8× 1:3 (always 10 μl to 20 μl DMSO) in this DMSO dilution row (results in 9 wells with concentrations from 3333.3 μM to 0.51 μM) • c) dilute each concentration 1:47.6 (3.5 μl compound dilution to 163 μl media) • d) add 10 μl of every concentration to 60 μl media in the cell plate resulting in final concentration of DMSO: 0.3% in every well and resulting in 10 final concentration of compounds ranging from 30 μM to 0.0015 μM. • Each compound is tested in triplicate. • Incubate 120 h (5 days) at 37° C., 5% CO2
• Add 30 μl CellTiter-Glo™ Reagent (prepared from CellTiter-Glo™ Buffer and CellTiter-Glo™ Substrate (lyophilized) purchased from Promega) per well, • shake 15 minutes at room temperature • incubate further 45 minutes at room temperature without shaking
• Victor 2 scanning multiwell spectrophotometer (Wallac), Luminescence mode (0.5 sec/read, 477 nm) • Determine IC50 using a non-linear curve fit (XLfit software (ID Business Solution Ltd., Guilford, Surrey, UK))

mutant Aurora A kinase = target: T1, mutant Aurora A kinase (Homo sapiens, UniProt O14965); experiment: IC50 determination for inhibitors of Aurora A (ELISA, GST-Histone H3 substrate); format: biochemical; conditions: 30 μM ATP, 40 minutes, read-out: IC50 Aurora A kinase inhibition
T1 sequence (O14965 1-403): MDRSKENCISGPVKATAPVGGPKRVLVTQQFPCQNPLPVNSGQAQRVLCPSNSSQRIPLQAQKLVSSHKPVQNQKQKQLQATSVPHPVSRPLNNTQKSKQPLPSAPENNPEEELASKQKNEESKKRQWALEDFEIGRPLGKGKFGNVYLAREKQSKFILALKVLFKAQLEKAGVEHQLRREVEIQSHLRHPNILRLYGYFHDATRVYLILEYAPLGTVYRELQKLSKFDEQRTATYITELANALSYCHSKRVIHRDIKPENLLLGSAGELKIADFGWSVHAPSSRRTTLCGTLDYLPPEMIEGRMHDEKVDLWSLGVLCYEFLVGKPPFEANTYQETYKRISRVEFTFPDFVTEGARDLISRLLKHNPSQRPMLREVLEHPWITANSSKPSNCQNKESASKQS
Description: Aurora A is a serine threonine kinase involved in spindle assembly and chromosome segregation.
The assay is a typically ELISA-type assay where substrate (GST-Histone H3) is coupled to the assay-plate and is phosphorylated by the kinase. Phosphorylation is detected by a mouse anti-Phosphopeptid mAb and an HRP-labeled anti-mouse pAb. The assay is validated for IC50-determination.
Kinase activities were measured by Enzyme-Linked Immunosorbent Assay (ELISA): Maxisorp 384-well plates (Nunc) were coated with recombinant fusion protein comprising residues 1-15 of Histone H3 fused to the N-terminus of Glutathione-S-Transferase. Plates were then blocked with a solution of 1 mg/mL I-block (Tropix cat# T2015—highly purified form of casein) in phosphate-buffered saline. Kinase reactions were carried out in the wells of the ELISA plate by combining an appropriate amount of mutant Aurora A kinase with test compound and 30 μM ATP. The reaction buffer was 10× Kinase Buffer (Cell Signaling cat #9802) supplemented with 1 μg/mL I-block. Reactions were stopped after 40 minutes by addition of 25 mM EDTA. After washing, substrate phosphorylation was detected by addition of anti-phospho-Histone H3 (Ser 10) 6G3 mAb (Cell Signaling cat #9706) and sheep anti-mouse pAb-HRP (Amersham cat# NA931V), followed by calorimetric development with TMB (3,3′,5,5′-tetramethylbenzidine from Kirkegaard & Perry Laboratories). After readout of the absorbance, IC50 values were calculated using a non-linear curve fit (XLfit software (ID Business Solution Ltd., Guilford, Surrey, UK)).

In the case of `COCCN(C)c1ccc2c(Nc3cc(C)[nH]n3)nn(C(C)C)c(=O)c2c1` [Example B-2, 2-Isopropyl-7-[(2-methoxy-ethyl)-methyl-amino]-4-(5-methyl-1H-pyrazol-3-ylamino)-2H-phthalazin-1-one], the pIC50 (HCT 116 cells; Homo sapiens, HCT-116, 120 h) was 6.30 to 7.30.

For `CSCCSc1ccc2c(Nc3cc(C)[nH]n3)nn(C(C)C)c(=O)c2c1` [Example C-1, 2-Isopropyl-4-(5-methyl-1H-pyrazol-3-ylamino)-7-(2-methylsulfanyl-ethylsulfanyl)-2H-phthalazin-1-one], the pIC50 (HCT 116 cells; Homo sapiens, HCT-116, 120 h) was 6.53.

For `CSCCN(C)c1ccc2c(Nc3cc(C)[nH]n3)nn(C(C)C)c(=O)c2c1` [Example B-1, 2-Isopropyl-7-[methyl-(2-methylsulfanyl-ethyl)-amino]-4-(5-methyl-1H-pyrazol-3-ylamino)-2H-phtalazin-1-one], the pIC50 (HCT 116 cells) was 7.04.

`Cc1cc(Nc2nn(C(C)C)c(=O)c3cc(OCCCS(=O)(=O)N4CCOCC4)ccc23)n[nH]1` [Example A-4, 2-Isopropyl-4-(5-methyl-1H-pyrazol-3-ylamino)-7-[3-(morpholine-4-sulfonyl)-propoxy]-2H-phthalazin-1-one] showed a pIC50 (mutant Aurora A kinase) of 8.00 and a pIC50 (HCT 116 cells; Homo sapiens, HCT-116, 120 h) of 6.10.

With `COCC(=O)N(C)c1ccc2c(Nc3cc(C)[nH]n3)nn(C(C)C)c(=O)c2c1` [Example G-1, N-[3-Isopropyl-1-(5-methyl-1H-pyrazol-3-ylamino)-4-oxo-3,4-dihydro-phthalazin-6-yl]-2-methoxy-N-methyl-acetamide] the pIC50 (HCT 116 cells; Homo sapiens, HCT-116, 120 h) was 6.30 to 7.30.

`COCCOc1ccc2c(Nc3cc(C)[nH]n3)nn(C(C)C)c(=O)c2c1` [Example A-2, 2-Isopropyl-7-(2-methoxy-ethoxy)-4-(5-methyl-1H-pyrazol-3-ylamino)-2H-phthalazin-1-one] was tested, and the pIC50 (HCT 116 cells; Homo sapiens, HCT-116, 120 h) was 6.30 to 7.30.

In the case of `Cc1cc(Nc2nn(C(C)C)c(=O)c3cc(OCCS(C)(=O)=O)ccc23)n[nH]1` [Example A-7, 2-Isopropyl-7-(2-methanesulfonyl-ethoxy)-4-(5-methyl-1H-pyrazol-3-ylamino)-2H-phthalazin-1-one], the pIC50 (HCT 116 cells; Homo sapiens, HCT-116, 120 h) was 6.30 to 7.30.

Work on `Cc1cc(Nc2nn(C(C)C)c(=O)c3cc(CS(C)(=O)=O)ccc23)n[nH]1` [Example F-2, 2-Isopropyl-7-methanesulfonylmethyl-4-(5-methyl-1H-pyrazol-3-ylamino)-2H-phthalazin-1-one] yielded a pIC50 (HCT 116 cells; Homo sapiens, HCT-116, 120 h) of 5.60 to 6.30.

`CSCCOc1ccc2c(Nc3cc(C)[nH]n3)nn(C(C)C)c(=O)c2c1` [Example A-1, 2-Isopropyl-4-(5-methyl-1H-pyrazol-3-ylamino)-7-(2-methylsulfanyl-ethoxy)-2H-phthalazin-1-one] gave a pIC50 (HCT 116 cells; Homo sapiens, HCT-116, 120 h) of 6.67.

`CSCc1ccc2c(Nc3cc(C)[nH]n3)nn(C(C)C)c(=O)c2c1` [Example F-1, 2-Isopropyl-4-(5-methyl-1H-pyrazol-3-ylamino)-7-methylsulfanylmethyl-2H-phthalazin-1-one] gave a pIC50 (HCT 116 cells; Homo sapiens, HCT-116, 120 h) of 6.30 to 7.30.

`Cc1cc(Nc2nn(C(C)C)c(=O)c3cc(OCCN(C)C)ccc23)n[nH]1` [Example A-5, 7-(2-Dimethylamino-ethoxy)-2-isopropyl-4-(5-methyl-1H-pyrazol-3-ylamino)-2H-phthalazin-1-one] showed a pIC50 (mutant Aurora A kinase) of 7.66.

Compound `Cc1cc(Nc2nn(C(C)C)c(=O)c3cc(S(=O)(=O)CCS(C)(=O)=O)ccc23)n[nH]1` [Example C-2, 2-Isopropyl-7-(2-methanesulfonyl-ethanesulfonyl)-4-(5-methyl-1H-pyrazol-3-ylamino)-2H-phthalazin-1-one] has a pIC50 (mutant Aurora A kinase) of 8.00 and a pIC50 (HCT 116 cells; Homo sapiens, HCT-116, 120 h) of 5.60 to 6.30.

`Cc1cc(Nc2nn(C(C)C)c(=O)c3cc(N(C)CCN(C)C)ccc23)n[nH]1` [Example B-3, 7-[(2-Dimethylamino-ethyl)-methyl-amino]-2-isopropyl-4-(5-methyl-1H-pyrazol-3-ylamino)-2H-phthalazin-1-one] was tested, and the pIC50 (HCT 116 cells; Homo sapiens, HCT-116, 120 h) was 6.30 to 7.30.

Work on `Cc1cc(Nc2nn(C(C)C)c(=O)c3cc(COCC4CC4)ccc23)n[nH]1` [Example E-1, 7-Cyclopropylmethoxymethyl-2-isopropyl-4-(5-methyl-1H-pyrazol-3-ylamino)-2H-phthalazin-1-one] yielded a pIC50 (HCT 116 cells; Homo sapiens, HCT-116, 120 h) of 6.30 to 7.30.

`Cc1cc(Nc2nn(C(C)C)c(=O)c3cc(COCc4cccnc4)ccc23)n[nH]1` [Example E-2, 2-Isopropyl-4-(5-methyl-1H-pyrazol-3-ylamino)-7-(pyridin-3-ylmethoxymethyl)-2H-phthalazin-1-one] was tested, and the pIC50 (HCT 116 cells; Homo sapiens, HCT-116, 120 h) was 6.30 to 7.30.

Compound `Cc1cc(Nc2nn(C(C)C)c(=O)c3cc(OCCCS(=O)(=O)N(C)C)ccc23)n[nH]1` [Example A-3, 3-[3-Isopropyl-1-(5-methyl-1H-pyrazol-3-ylamino)-4-oxo-3,4-dihydro-phthalazin-6-yloxy]-propane-1-sulfonic acid dimethylamide] has a pIC50 (HCT 116 cells; Homo sapiens, HCT-116, 120 h) of 6.30 to 7.30.

In the case of `Cc1cc(Nc2nn(C(C)C)c(=O)c3cc(COCCN4CCOCC4)ccc23)[nH]n1` [Example E-3, 2-Isopropyl-4-(5-methyl-2H-pyrazol-3-ylamino)-7-(2-morpholin-4-yl-ethoxymethyl)-2H-phthalazin-1-one], the pIC50 (mutant Aurora A kinase) was 7.80 and the pIC50 (HCT 116 cells; Homo sapiens, HCT-116, 120 h) was 5.60 to 6.30.

`COCC(=O)N(C)c1ccc2c(Nc3cc(C)[nH]n3)nn(Cc3cc(F)cc(F)c3)c(=O)c2c1` [Example G-2, N-[3-(3,5-Difluoro-benzyl)-1-(5-methyl-1H-pyrazol-3-ylamino)-4-oxo-3,4-dihydro-phthalazin-6-yl]-2-methoxy-N-methyl-acetamide] was tested, and the pIC50 (HCT 116 cells; Homo sapiens, HCT-116, 120 h) was 5.60 to 6.30.
